From patent US20160312240A1, “MODIFIED PYR/PYL RECEPTORS ACTIVATED BY ORTHOGONAL LIGANDS” (The Regents of the University of California, priority 2010, published 2016)

Key:
PYR1 mutant 27-18 = molecular target: T1, PYR1 mutant 27-18 (Arabidopsis thaliana, UniProt O49686, K59R/S47P/Y120H); test: Yeast two-hybrid LacZ reporter assay (pAD-HAB1 YRG-2 strain); type: cell-based; conditions: 1, 5, 10, 25, and 50 μM
T1 construct: expressed in transfected cells; host or cells: S. cerevisiae YRG-2 expressing pAD-HAB1
T1 sequence (O49686 whole entry S47P/K59R/Y120H): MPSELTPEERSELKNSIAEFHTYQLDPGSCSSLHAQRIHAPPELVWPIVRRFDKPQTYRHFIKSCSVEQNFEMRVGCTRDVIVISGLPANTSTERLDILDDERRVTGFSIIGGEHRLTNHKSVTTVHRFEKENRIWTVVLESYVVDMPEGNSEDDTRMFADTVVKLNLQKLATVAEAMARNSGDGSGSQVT
T1 sequence (Q9CAJ0 23-511, stated change not applied, further chain): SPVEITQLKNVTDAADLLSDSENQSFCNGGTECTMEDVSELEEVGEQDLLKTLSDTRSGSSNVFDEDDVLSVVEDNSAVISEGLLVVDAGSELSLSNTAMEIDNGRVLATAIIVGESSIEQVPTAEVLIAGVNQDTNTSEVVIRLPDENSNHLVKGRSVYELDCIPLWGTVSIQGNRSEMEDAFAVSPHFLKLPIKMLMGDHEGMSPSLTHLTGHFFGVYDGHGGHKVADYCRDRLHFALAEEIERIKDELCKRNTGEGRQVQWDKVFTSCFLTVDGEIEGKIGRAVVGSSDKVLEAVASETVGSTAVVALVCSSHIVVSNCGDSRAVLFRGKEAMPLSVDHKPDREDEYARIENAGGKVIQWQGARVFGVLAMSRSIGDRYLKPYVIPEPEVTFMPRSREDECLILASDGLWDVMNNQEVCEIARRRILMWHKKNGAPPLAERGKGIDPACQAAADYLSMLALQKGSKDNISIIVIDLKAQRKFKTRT
Procedure: (§1) Plasmids for three representative mutant clones (27-9, 27-18, and 27-36) were isolated from the primary yeast cells and transformed into a pAD-HAB1 expressing YRG-2 reporter strain (Park et al., Science 324:1068-1071 (2009)) in which Ga14 drives expression of a LacZ reporter gene to allow colorimetric indication of agonist response. Fenhexamid was applied at concentrations of 1, 5, 10, 25, and 50 μM. […] Mutant 27-36 was responsive to fenhexamid at 25 and 50 μM concentrations.

PYR1 mutant 27-36 = molecular target: T2, PYR1 mutant 27-36 (Arabidopsis thaliana, UniProt O49686, E12G/E43G/I110S/K59R/N133D); test: as above; type: cell-based; conditions: 25 and 50 μM (applied 1-50 μM)
T2 construct: expressed in transfected cells; host or cells: S. cerevisiae YRG-2 expressing pAD-HAB1
T2 sequence (Q9CAJ0 23-511): as the sequence (Q9CAJ0 23-511, stated change not applied, further chain) above
T2 sequence (O49686 whole entry E12G/E43G/K59R/I110S/N133D): as the sequence (O49686 whole entry S47P/K59R/Y120H) above, with E12G, E43G, P47S, I110S, H120Y, N133D counted along it
Procedure: as §1

PYR1 mutant 27-9 = molecular target: T3, PYR1 mutant 27-9 (Arabidopsis thaliana, UniProt O49686, E153G/K59R/P42S/Y120C); test: as above; type: cell-based
T3 construct: expressed in transfected cells; host or cells: S. cerevisiae YRG-2 expressing pAD-HAB1
T3 sequence (O49686 whole entry P42S/K59R/Y120C/E153G): as the sequence (O49686 whole entry S47P/K59R/Y120H) above, with P42S, P47S, H120C, E153G counted along it
T3 sequence (Q9CAJ0 whole entry, further chain): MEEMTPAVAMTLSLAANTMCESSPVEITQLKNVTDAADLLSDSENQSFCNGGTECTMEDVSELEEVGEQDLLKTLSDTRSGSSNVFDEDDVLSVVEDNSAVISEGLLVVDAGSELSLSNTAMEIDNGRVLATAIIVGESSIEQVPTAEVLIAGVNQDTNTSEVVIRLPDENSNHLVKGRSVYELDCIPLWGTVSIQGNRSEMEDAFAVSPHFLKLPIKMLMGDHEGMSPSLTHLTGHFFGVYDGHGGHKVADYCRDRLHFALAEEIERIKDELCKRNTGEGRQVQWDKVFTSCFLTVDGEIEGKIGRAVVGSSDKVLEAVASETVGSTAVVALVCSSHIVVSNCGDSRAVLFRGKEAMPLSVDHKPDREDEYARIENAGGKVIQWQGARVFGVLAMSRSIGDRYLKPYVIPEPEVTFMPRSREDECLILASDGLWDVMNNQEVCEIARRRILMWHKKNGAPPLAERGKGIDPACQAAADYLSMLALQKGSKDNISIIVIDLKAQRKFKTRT
Procedure: as §1

[1] = test system: PYR1 variants 27C-1, 27C-2, 27C-3, 27C-5, 27C-16, 27C-18, 27C-19, 27C-20, 27C-21 (Table 8); test: MAV99 growth selection, third round of shuffling; type: cell-based, Arabidopsis; conditions: 1.5 μM fenhexamid; media lacking uracil; Table 8 variants
Procedure: A third round of shuffling was conducted by combining DNA for the “27B′” mutants shown in Table 7 and ePCR1 library to create a library of ˜150,000 clones which was then transformed into MAV99 pAD-HAB 1. Constitutive mutants were then depleted by growth on FOA after which fenhexamid sensitive mutants were selected by growth on media lacking uracil but containing 1.5 μM fenhexamid, using the methods described above.

PYL2 K64R,Y124H,M164I = molecular target: T4, PYL2 K64R,Y124H,M164I (Arabidopsis thaliana, UniProt O80992, K64R/M164I/Y124H); test: Yeast two-hybrid assay, strain Y190 pAD-HAB1, X-gal staining; type: cell-based; conditions: FIG. 3A
T4 construct: expressed in transfected cells; host or cells: Saccharomyces cerevisiae Y190 pAD-HAB1
T4 sequence (O80992 whole entry K64R/Y124H/M164I): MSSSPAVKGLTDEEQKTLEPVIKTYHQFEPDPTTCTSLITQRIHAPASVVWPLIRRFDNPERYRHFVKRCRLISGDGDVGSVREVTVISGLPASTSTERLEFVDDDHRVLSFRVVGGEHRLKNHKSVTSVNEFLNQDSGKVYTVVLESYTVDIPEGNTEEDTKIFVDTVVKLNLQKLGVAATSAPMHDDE
Procedure: FIGS. 3A-3B. […] FIG. 3A. […] In addition, pocket residue mutations at V114I and/or V67I were introduced. The mutants (listed on left side of panel) were constructed in pBD-PYL2 and transformed into Y190 pAD-HAB1 yeast cells. The transformants were then grown on increasing concentrations of fenhexamid and scored for responsiveness using X-gal staining, performed as described in Park et al., 2009. […] FIG. 3B. In vitro characterization of PYL2 K64R, Y124H, M164I, V67I, V114I mutant. Recombinant wild-type and mutant PYL2 proteins were produced as described previously and used in PP2C assays, as described previously (Park et al., 2009), with the exception that a 2:1 ratio of receptor for phosphatase was used.
PYR1 is a member of the PYR/PYL receptor protein family, which in Arabidopsis contains 14 members. […] Given the conserved nature of these residues, we speculated that fenhexamid sensitivity could be engineered into other receptor family members by mutating homologous residues in other PYR/PYL receptors. To test this, we introduced the homologous mutations in PYL2 (K64R, corresponding to K59R in PYR1; Y124H, corresponding to Y120H in PYR1; and M164I, corresponding to M158I in PYR1), creating the mutant PYL2^K64R,Y124H,M164I. […]

[2] = test system: 35S::GFP-PYL2 K64R,Y124H,M164I,V67I,V114I transgenic plants; test: Quantitative RT-PCR of ABA reporter genes in seedlings; type: in vivo, Arabidopsis; conditions: 100 μM fenhexamid for 6 hours, liquid culture; two independent transgenic lines; FIG. 5
Procedure: FIG. 5. Characterization of seedling transcriptional responses to fenhexamid in 35S::GFP-PYL2 K64R, Y124H, M164I, V67I, V114I transgenic plants. GFP-expressing T2 seedlings from respective lines were isolated after germination on petri plates and pre-screened by epi-fluorescence microscopy and subsequently grown in liquid media culture for 7 days, after which seedlings were treated with either 100 μM fenhexamid or control (0.1% DMSO) for 6 hours. RNA was subsequently isolated from the samples and utilized in quantitative RT-PCR experiments using three well-characterized ABA responsive transcripts (as described previously, Park et al., 2009). The primer sequences used for RT-PCR analysis were obtained from Roche and synthesized by Invitrogen. Quantitative RT-PCR was performed using SybrGreen on a BioRad CFX 96 real-time PCR instrument. mRNA copy number is expressed as copy number per nanogram total RNA. Data was normalized using an ACT2 gene. Copy number was established using a standard curve of known concentration of the target genes. […]
To further investigate ABA-response activation, we next tested GFP^+ transgenics (T2 segregants) and appropriate controls for activation of 3 ABA reporter genes (P5CS1, RD29A, and NCED3) in response to exposure to fenhexamid in liquid culture using quantitative RT-PCR methods. […]

## CC1(C(=O)Nc2ccc(O)c(Cl)c2Cl)CCCCC1 [fenhexamid]
PYR1 mutant 27-18
  Response to fenhexamid (LacZ staining): strongly responded
PYR1 mutant 27-36
  Response to fenhexamid (LacZ staining): responsive
PYR1 mutant 27-9; 1 μM
  Response to fenhexamid (LacZ staining): weakly positive
PYR1 mutant 27-9; 5, 10, 25, and 50 μM
  Response to fenhexamid (LacZ staining): strongly responded
[1]
  Growth in response to fenhexamid (selection): fenhexamid responsive
PYL2 K64R,Y124H,M164I
  fenhexamid responsiveness (yeast two-hybrid): does not show fenhexamid responsiveness
[2]
  Activation of 3 ABA reporter genes (P5CS1, RD29A, and NCED3): substantial induction
